Test results as given in PMC9645662, “Dual role of an essential HtrA2/Omi protease in the human malaria parasite: Maintenance of mitochondrial homeostasis and induction of apoptosis-like cell death under cellular stress” (PLOS Pathogens, 2022).

Target: T1, PfHtrA2 (HtrA2/Omi serine protease) (Plasmodium falciparum, UniProt A0A143ZXD4)
T1 construct: gene PF3D7_0812200; protease domain (135–290 aa; HtrA2-protease), histidine-tagged, expressed in E. coli
T1 sequence (A0A143ZXD4 135-290): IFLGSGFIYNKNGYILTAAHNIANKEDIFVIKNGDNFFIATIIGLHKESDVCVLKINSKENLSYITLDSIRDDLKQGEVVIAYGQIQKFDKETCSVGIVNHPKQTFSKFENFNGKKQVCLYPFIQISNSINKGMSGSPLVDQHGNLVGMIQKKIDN
Experiment: fluorogenic protease activity assay of the recombinant protease domain, concentration-dependent inhibition
Format: biochemical

SMILES: O=C1C(=Cc2ccc(-c3ccccc3[N+](=O)[O-])o2)C(=O)N(c2ccccc2)C(=S)N1c1ccccc1 [ucf-101]
- IC50: 8.1 µM
